Assay results from PMC5078989, “Targeted inhibition of the COP9 signalosome for treatment of cancer” (Nature Communications, 2016).

System: panel of cancer cell lines
Assay: Cell viability (CellTiter-Glo) dose-response across cancer cell line panel;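 further: after 72 h compound incubation with CellTiter-Glo ATP readout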
Format: cell-based, human
Details: Homo sapiens
Excerpt: Next, we explored the effect of CSN5 inhibition on the viability of cancer cells. To obtain a comprehensive picture, we generated dose–response curves with a CSN5 inhibitor across more than 500 cancer cell lines in a previously described standardized setting[47] (Supplementary Data 1).
A standardized CellTiter-Glo Assay (Promega #G7570) based on the quantification of ATP was applied according to the manufacturer's protocol to measure the amount of viable cells in culture. In brief, cells were seeded into 384-well plates at optimal density for each cell line. After 4 h, compounds were added at different concentrations in growth medium and incubated for another 72 h in a humidifying chamber at 37 °C and 5% CO2. […] EC50 values were calculated from the plot of percentage of inhibition versus inhibitor concentration using the nonlinear regression analysis software Origin 7.5SR6 (OriginLab Corp.).

`CC(C)C[C@H](NC(=O)[C@H](Cc1ccccc1)NC(=O)c1cnccn1)B(O)O` [Bortezomib] showed an EC50 (HCC1500, HCC1500) of 5.16 nM, an EC50 (HCC1569, HCC1569) of 6.77 nM and an EC50 (HCC1806, HCC1806) of 24.8 nM. It also gave an EC50 (HCC1937, HCC1937) of 7.46 nM, an EC50 (HCC1954, HCC1954) of 3.14 nM and an EC50 (HCC2218, HCC2218) of 9.79 nM. It also gave an EC50 (HCT-15, HCT-15) of 26.6 nM, an EC50 (HCT-116, HCT 116) of 6.91 nM and an EC50 (HEC-1-A, cell line HEC-1-A) of 15.5 nM. It also gave an EC50 (HEC-6, HEC-6) of 21.4 nM, an EC50 (HEC-50B) of 25.2 nM and an EC50 (HEC-59) of 7.32 nM. It also gave an EC50 (HEC-151) of 21.6 nM, an EC50 (HEC-251, HEC-251) of 9.46 nM and an EC50 (HEC-265) of 17 nM. It also gave an EC50 (HEL 92.1.7, HEL 92.1.7) of 5.21 nM, an EC50 (HEY A8, Hey-A8) of 56.7 nM and an EC50 (HGC-27, HGC-27) of 16.2 nM. The EC50 (HLC-1) was 11.1 nM, the EC50 (HLF) was 13.8 nM and the EC50 (HMC-1-8) was 7.01 nM. The EC50 (HMCB) was 9.61 nM, the EC50 (HPBALL, HPB-ALL) was 3.18 nM and the EC50 (HRT-18, HRT-18) was 53.1 nM. For the same compound, the EC50 (HT) was 1.72 nM, the EC50 (HT55, HT55) was 31 nM and the EC50 (HT115, HT115) was 8.52 nM. For the same compound, the EC50 (HT-29, HT-29) was 18.4 nM, the EC50 (HT-144, HT-144) was 8.93 nM and the EC50 (HT-1080, HT-1080) was 20.1 nM. It also gave an EC50 (HT-1376, HT-1376) of 18.1 nM, an EC50 (HTK-) of 17.1 nM and an EC50 (Hs 294T) of 11.4 nM. For the same compound, the EC50 (Hs 571.T) was 10.2 nM, the EC50 (Hs 611.T) was 6.13 nM and the EC50 (Hs 695T) was 3.73 nM. The EC50 (Hs 729) was 7.87 nM, the EC50 (Hs766T, Hs 766T) was 19.8 nM and the EC50 (Hs 936.T) was 8.25 nM. The EC50 (Hs 939.T) was 4.42 nM, the EC50 (Hs 940.T) was 3.97 nM and the EC50 (Hs 944.T) was 12.7 nM. It also gave an EC50 (Hs-578T, Hs 578T) of 10.3 nM, an EC50 (HuH-1, cell line huH-1) of 44.7 nM and an EC50 (HuP-T3, HUP-T3) of 7.39 nM. For the same compound, the EC50 (IGR-1, IGR-1) was 8.66 nM, the EC50 (IGR-37, IGR-37) was 8.3 nM and the EC50 (IGR-39, IGR-39) was 7.6 nM. The EC50 (IGROV-1, IGROV1) was 26.8 nM, the EC50 (IMR-32, IMR-32) was 5.94 nM and the EC50 (IPC-298, cell line IPC-298) was 9.44 nM. It also gave an EC50 (Ishikawa, Ishikawa (Heraklio) 02 ER-) of 16.1 nM, an EC50 (J82, J82) of 11.9 nM and an EC50 (JHH7, cell line JHH-7) of 10.2 nM. The EC50 (JHH-2, cell line JHH-2) was 18.3 nM, the EC50 (JHOM-1) was 4.86 nM and the EC50 (JHUEM-2) was 5.6 nM. For the same compound, the EC50 (JIMT-1, JIMT-1) was 13.9 nM, the EC50 (JJN-3, JJN-3) was 2.61 nM and the EC50 (JVM-2, JVM-2) was 4.69 nM. It also gave an EC50 (JVM-3, JVM-3) of 8.69 nM, an EC50 (JeKo-1, JeKo-1) of 7.3 nM and an EC50 (Jurkat) of 9.14 nM. For the same compound, the EC50 (K029AX) was 4.76 nM, the EC50 (K562, K-562) was 16.3 nM and the EC50 (KARPAS-299, KARPAS-299) was 5.88 nM. It also gave an EC50 (KARPAS-422, KARPAS-422) of 6.19 nM, an EC50 (KASUMI-2) of 3.8 nM and an EC50 (KATO III, cell line KATO III) of 7.88 nM. For the same compound, the EC50 (KCL-22, KCL-22) was 4.19 nM, the EC50 (KHM-1B) was 4.04 nM and the EC50 (KLE) was 12.8 nM. It also gave an EC50 (KM12, KM12) of 23.9 nM, an EC50 (KMM-1, KMM-1) of 4.45 nM and an EC50 (KMRC-1, KMRC-1) of 6.75 nM. The EC50 (KMRC-20) was 10.1 nM, the EC50 (KMS-11, KMS-11) was 3.19 nM and the EC50 (KMS-12-BM) was 5.34 nM. The EC50 (KMS-26, KMS-26) was 11.5 nM, the EC50 (KMS-28BM) was 3.85 nM and the EC50 (KMS-34, KMS-34) was 12.2 nM. For the same compound, the EC50 (KNS-62, KNS-62) was 19.3 nM, the EC50 (KO52) was 2.37 nM and the EC50 (KP-1N) was 7.49 nM. The EC50 (KP-1NL) was 9.41 nM, the EC50 (KP-N-SI9s) was 8.48 nM and the EC50 (KP-N-YN) was 20.2 nM. It also gave an EC50 (KPL-1, KPL-1) of 20.5 nM, an EC50 (KU812, KU812) of 4 nM and an EC50 (KYM-1) of 4.88 nM. It also gave an EC50 (KYO1, KYO-1) of 6.59 nM, an EC50 (KYSE-30, KYSE-30) of 7.82 nM and an EC50 (KYSE-70, cell line KYSE-70) of 18 nM. The EC50 (KYSE-150, cell line KYSE-150) was 6.63 nM, the EC50 (KYSE-270, cell line KYSE-270) was 10.3 nM and the EC50 (KYSE-410, cell line KYSE-410) was 21.2 nM. The EC50 (KYSE-450, KYSE-450) was 16 nM, the EC50 (KYSE-510, cell line KYSE-510) was 11.9 nM and the EC50 (KYSE-520, cell line KYSE-520) was 13.4 nM. It also gave an EC50 (Karpas-620, KARPAS-620) of 6.17 nM, an EC50 (Kelly) of 3.53 nM and an EC50 (Ki-JK) of 4.34 nM. For the same compound, the EC50 (L3.3) was 29.6 nM, the EC50 (L-363, L-363) was 5.51 nM and the EC50 (LAMA-84, LAMA-84) was 5.36 nM. It also gave an EC50 (LCLC-97TM1, LCLC-97TM1) of 8.39 nM, an EC50 (LCLC-103H) of 10.1 nM and an EC50 (LK-2, LK-2) of 11.7 nM. The EC50 (LMSU) was 10.3 nM, the EC50 (LN-18, LN-18) was 15.3 nM and the EC50 (LN-229, LN-229) was 8.7 nM. The EC50 (LOX IMVI) was 26.4 nM, the EC50 (LP-1, LP-1) was 5.99 nM and the EC50 (LS180, LS 180) was 16.4 nM. For the same compound, the EC50 (LS-411N, LS411N) was 17.3 nM, the EC50 (LXF-289, LXF-289) was 14.3 nM and the EC50 (Li-7, Li-7) was 15.6 nM. The EC50 (LoVo) was 13.4 nM, the EC50 (Loucy) was 2.54 nM and the EC50 (Lu-65, LU65) was 7.61 nM. The EC50 (Lu-99, LU99) was 15.4 nM, the EC50 (MB 157) was 6.39 nM and the EC50 (MC116, cell line MC116) was 9.81 nM. For the same compound, the EC50 (MCAS) was 8.1 nM, the EC50 (MCF7, MCF7) was 38 nM and the EC50 (MDA-MB-175-VII) was 10.3 nM. The EC50 (MDA-MB-231, MDA-MB-231) was 10.9 nM, the EC50 (MDA-MB-415, MDA-MB-415) was 16.1 nM and the EC50 (MDA-MB-436, MDA-MB-436) was 12.6 nM. It also gave an EC50 (MDA-MB-453, MDA-MB-453) of 6.73 nM, an EC50 (MDA-MB-468, MDA-MB-468) of 5.97 nM and an EC50 (MDST8, MDST8) of 8.17 nM. It also gave an EC50 (MEC1, MEC-1) of 4.98 nM, an EC50 (MEG-01, MEG-01) of 8.7 nM and an EC50 (MEL-JUSO) of 10.6 nM. The EC50 (MFE-296, cell line MFE-296) was 19.8 nM, the EC50 (MG-63, MG-63) was 5.92 nM and the EC50 (MHH-NB-11) was 10.4 nM. It also gave an EC50 (MIA PaCa-2, cell line MIA PaCa-2) of 15.1 nM, an EC50 (MINO) of 6.8 nM and an EC50 (MKN-1, cell line MKN1) of 6.81 nM. It also gave an EC50 (MKN-7, cell line MKN7) of 7.08 nM, an EC50 (MKN-45, cell line MKN-45) of 8.03 nM and an EC50 (MKN-74, cell line MKN74) of 8.77 nM. For the same compound, the EC50 (MM1.S, cell line MM1-S) was 2 nM, the EC50 (MOLM16, MOLM-16) was 1.95 nM and the EC50 (MOLM-13, MOLM-13) was 5.21 nM. For the same compound, the EC50 (MOLP-8, MOLP-8) was 7.29 nM, the EC50 (MOLT-16, MOLT-16) was 1.73 nM and the EC50 (MONO-MAC-6, MONO-MAC-6) was 10.9 nM. For the same compound, the EC50 (MOR/CPR) was 39.6 nM, the EC50 (MSTO-211H, cell line MSTO-211H) was 22 nM and the EC50 (MV4-11, cell line MV-4-11) was 5.18 nM. For the same compound, the EC50 (Malme-3M) was 3.27 nM, the EC50 (Maver1, cell line MAVER-1) was 6.73 nM and the EC50 (MeWo, cell line MeWo) was 8.08 nM. The EC50 (Mel202, cell line Mel202) was 10.1 nM and the EC50 (Mono-Mac-1, MONO-MAC-1) was 7.98 nM.
